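All cell lines were grown in 96-well plates and treated with compound for 48 hours. The concentration for 50% growth inhibition is given as GI50. TGI is the concentration that stops growth completely.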
Tests used:
Assay in all cases: NCI tumour cell line growth inhibition, 48 h
[1] = system: EKVX NSCLC
[2] = system: M14 melanoma
[3] = system: SNB-75 CNS
[4] = system: SNB-19 CNS
[5] = system: DU-145 prostate
[6] = system: HCT-116 colon
[7] = system: U251 CNS
[8] = system: OVCAR-8 ovarian
[9] = system: MOLT-4 leukemia
[10] = system: OVCAR-5 ovarian
[11] = system: MDA-MB-231 breast
[12] = system: 786-0 renal
[13] = system: SK-MEL-5 melanoma
[14] = system: MDA-MB-435
[15] = system: HT29 colon
[16] = system: SK-MEL-28 melanoma
[17] = system: MCF7 breast
[18] = system: NCI-H522 lung
[19] = system: SK-MEL-2 melanoma
[20] = system: SK-OV-3 ovarian
[21] = system: HCC-2998 colon
[22] = system: NCI-H226 lung
[23] = system: HS 578T breast
[24] = system: HOP-62 NSCLC
[25] = system: TK-10 renal
[26] = system: IGROV1 ovarian
[27] = system: OVCAR-3 ovarian
[28] = system: PC-3 prostate
[29] = system: HCT-15 colon
[30] = system: SN12C renal
[31] = system: MALME-3M melanoma
[32] = system: RPMI-8226 leukemia
[33] = system: UO-31 renal
[34] = system: CCRF-CEM leukemia
[35] = system: SF-539 CNS
[36] = system: SW-620 colon
[37] = system: UACC-257 melanoma
[38] = system: A549 NSCLC
[39] = system: RXF 393 renal
[40] = system: KM12 colon
[41] = system: K-562 leukemia
[42] = system: UACC-62 melanoma
[43] = system: NCI-H23 lung
[44] = system: HL-60(TB) leukemia
[45] = system: CAKI-1 renal
[46] = system: NCI/ADR-RES ovarian
[47] = system: SF-295 CNS
[48] = system: LOX IMVI melanoma
[49] = system: T-47D breast
[50] = system: COLO 205 colon
[51] = system: SF-268 CNS
[52] = system: HOP-92 NSCLC
[53] = system: OVCAR-4 ovarian
[54] = system: NCI-H460 lung
[55] = system: BT-549 breast
[56] = system: SR leukemia
[57] = system: ACHN renal

Compound: COc1cnc2c(c1)C(=O)c1c-2n(CCCN2CCCC2)c(=O)c2cc([N+](=O)[O-])ccc12
- GI50 [1]: 297 nM
- TGI [1]: 12300 nM
- GI50 [2]: < 10 nM
- TGI [2]: 1010 nM
- GI50 [3]: 45.7 nM
- TGI [3]: 14300 nM
- GI50 [4]: 35.5 nM
- TGI [4]: 4300 nM
- GI50 [5]: 18.6 nM
- TGI [5]: 1790 nM
- GI50 [6]: < 10 nM
- TGI [6]: 144 nM
- GI50 [7]: 11.3 nM
- TGI [7]: 1030 nM
- GI50 [8]: 92.9 nM
- TGI [8]: 5850 nM
- GI50 [9]: < 10 nM
- TGI [9]: 45.1 nM
- GI50 [10]: 163 nM
- TGI [10]: 1520 nM
- GI50 [11]: 683 nM
- TGI [11]: 2650 nM
- GI50 [12]: 26.6 nM
- TGI [12]: 152 nM
- GI50 [13]: 67.1 nM
- TGI [13]: 322 nM
- GI50 [14]: 64.7 nM
- TGI [14]: 1130 nM
- GI50 [15]: 20.2 nM
- TGI [15]: 1370 nM
- GI50 [16]: 10600 nM
- TGI [16]: 27900 nM
- GI50 [17]: < 10 nM
- TGI [17]: 1460 nM
- GI50 [18]: 60.7 nM
- TGI [18]: 3800 nM
- GI50 [19]: 1010 nM
- TGI [19]: 15900 nM
- GI50 [20]: 33.6 nM
- TGI [20]: 843 nM
- GI50 [21]: 157 nM
- TGI [21]: 2530 nM
- GI50 [22]: 104 nM
- TGI [22]: 715 nM
- GI50 [23]: 1910 nM
- TGI [23]: 23200 nM
- GI50 [24]: < 10 nM
- TGI [24]: 1240 nM
- GI50 [25]: 373 nM
- TGI [25]: 14100 nM
- GI50 [26]: 18.7 nM
- TGI [26]: 1360 nM
- GI50 [27]: 58.6 nM
- TGI [27]: 901 nM
- GI50 [28]: 66.2 nM
- TGI [28]: 13900 nM
- GI50 [29]: 61.6 nM
- TGI [29]: 4050 nM
- GI50 [30]: 36 nM
- TGI [30]: 15300 nM
- GI50 [31]: 55.8 nM
- TGI [31]: 1150 nM
- GI50 [32]: 37.4 nM
- TGI [32]: 1110 nM
- GI50 [33]: < 10 nM
- TGI [33]: 206 nM
- GI50 [34]: < 10 nM
- TGI [34]: 3770 nM
- GI50 [35]: 30.8 nM
- TGI [35]: 353 nM
- GI50 [36]: < 10 nM
- TGI [36]: 1340 nM
- GI50 [37]: 176 nM
- TGI [37]: 11000 nM
- GI50 [38]: 46.3 nM
- TGI [38]: 1150 nM
- GI50 [39]: 61.1 nM
- TGI [39]: 533 nM
- GI50 [40]: 139 nM
- TGI [40]: 1770 nM
- GI50 [41]: 22.6 nM
- TGI [41]: 1900 nM
- GI50 [42]: 15.3 nM
- TGI [42]: 631 nM
- GI50 [43]: 27.2 nM
- TGI [43]: 1250 nM
- GI50 [44]: 29.9 nM
- TGI [44]: 1060 nM
- GI50 [45]: < 10 nM
- TGI [45]: 1460 nM
- GI50 [46]: 26 nM
- TGI [46]: 1310 nM
- GI50 [47]: < 10 nM
- TGI [47]: 215 nM
- GI50 [48]: < 10 nM
- TGI [48]: 112 nM
- GI50 [49]: 17.9 nM
- TGI [49]: 12800 nM
- GI50 [50]: 35.4 nM
- TGI [50]: 13800 nM
- GI50 [51]: 19.1 nM
- TGI [51]: 12800 nM
- GI50 [52]: 554 nM
- TGI [52]: 15600 nM
- GI50 [53]: 84.8 nM
- TGI [53]: 10500 nM
- GI50 [54]: < 10 nM
- TGI [54]: 116 nM
- GI50 [55]: 354 nM
- TGI [55]: 16000 nM
- GI50 [56]: < 10 nM
- TGI [56]: 1340 nM
- GI50 [57]: < 10 nM
- TGI [57]: 132 nM
